Measurements reported in paper PMC11045757, “Group 3 medulloblastoma transcriptional networks collapse under domain specific EP300/CBP inhibition” (Nature Communications, 2024).

Key:
TRIM24(PHD,Bromo.) = molecular target: T1, TRIM24(PHD,Bromo.) (Homo sapiens, UniProt O15164); assay: BromoScan profiling (DiscoverX); type: binding; settings: read-out: Percent Control TRIM24(PHD,Bromo.)
T1 construct: purchased Eurofins DiscoverX (BROMOscan)

[1] = Plasma pharmacokinetics after i.p. dosing; type: in vivo, female CD-1 nude mice; settings: 16 and 24 hrs, below lower limit of quantitation
Procedure: All animal studies were approved by the St. Jude Children’s Research Hospital Animal Care and Use Committee and performed in accordance with best practices outlined by the NIH Office of Laboratory Animal Welfare. […] Three survival blood samples were obtained from each mouse via retro-orbital plexus using 70 μL glass microhematocrit capillary tubes (Fisher), and a fourth final sample by cardiac puncture immediately following the third survival sample, all using K-EDTA as anticoagulant. Samples were obtained at various times up to 24 h post-dose, immediately processed to plasma, and stored at −80 °C until analysis. […]
Brain samples were homogenized using a FastPrep-24 system (MP Biomedicals, Santa Ana, CA), and stored at -80 °C until analysis by qualified liquid chromatography–tandem mass spectrometry (LC-MS/MS) assay. […] Plasma and brain homogenate samples were precipitated, and extracted supernatant was analyzed on an AB Sciex ExionLC high performance liquid chromatography system via an AB Sciex ExionLC autosampler. For quantitation, a linear model (1/X^2 weighting) fit the plasma and brian homogenate calibrators across the 1 to 500 ng/mL range, with a correlation coefficient (R) of ≥0.9967. The lower limit of quantitation (LLOQ), defined as a peak area signal-to-noise ratio of 5 or greater verses a matrix blank with internal standard, was 1 ng/mL in plasma and 6 ng/mL in brain. […]

WDR9(2) = molecular target: T2, WDR9(2) (Homo sapiens, UniProt Q9NSI6); assay: BromoScan profiling (DiscoverX); type: binding; settings: read-out: Percent Control WDR9(2)
T2 construct: WDR9(2); purchased Eurofins DiscoverX (BROMOscan)

BRD9 = molecular target: T3, BRD9 (Homo sapiens, UniProt Q9H8M2); assay: BromoScan profiling (DiscoverX); type: binding; settings: read-out: Percent Control BRD9
T3 construct: purchased Eurofins DiscoverX (BROMOscan)

BRD1 = molecular target: T4, BRD1 (Homo sapiens, UniProt O95696); assay: BromoScan profiling (DiscoverX); type: binding; settings: read-out: Percent Control BRD1
T4 construct: purchased Eurofins DiscoverX (BROMOscan)

TAF1(2) = molecular target: T5, TAF1(2) (Homo sapiens, UniProt P21675); assay: BromoScan profiling (DiscoverX); type: binding; settings: read-out: Percent Control TAF1(2)
T5 construct: TAF1(2); purchased Eurofins DiscoverX (BROMOscan)
T5 sequence (P21675 1519-1656 limits assumed): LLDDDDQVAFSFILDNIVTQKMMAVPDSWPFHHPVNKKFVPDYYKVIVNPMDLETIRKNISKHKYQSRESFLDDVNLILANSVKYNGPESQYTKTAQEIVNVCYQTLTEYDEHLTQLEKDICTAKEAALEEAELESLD

BRD7 = molecular target: T6, BRD7 (Homo sapiens, UniProt Q9NPI1); assay: BromoScan profiling (DiscoverX); type: binding; settings: read-out: Percent Control BRD7
T6 construct: purchased Eurofins DiscoverX (BROMOscan)

BRD3(2) = molecular target: T7, BRD3(2) (Homo sapiens, UniProt Q15059); assay: BromoScan profiling (DiscoverX); type: binding; settings: read-out: Percent Control BRD3(2)
T7 construct: BRD3(2); purchased Eurofins DiscoverX (BROMOscan)
T7 sequence (Q15059 306-416 limits assumed): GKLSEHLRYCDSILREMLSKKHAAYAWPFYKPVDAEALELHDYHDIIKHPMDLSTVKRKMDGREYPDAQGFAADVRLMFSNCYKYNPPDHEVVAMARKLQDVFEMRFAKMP

[2] = tested on: c-MYC in HDMB03 (HDMBO3) cells; assay: Western blotting for c-MYC after 6 h treatment; type: cell-based; settings: CCS1477 39 nM, A485 400 nM, JQ1 100 nM
Text: Line width indicates strength of known protein-protein interactions. Red indicates proteins involved in control of mRNA transcription/cell cycle, blue indicates proteins involved in RNA metabolism.
Western blotting protocols were as previously described[16],[69]. Briefly, cells growing in culture were lysed for whole-cell lysates using RIPA buffer, or for affinity pulldown using IP-lysis buffer (Pierce Biotechnology) per the manufacturer’s protocol. […] Equal amounts of protein were resolved by Western blotting using 4% to 12% Bis–Tris NuPAGE gels (Thermo Fisher Scientific) prior to transfer and immunoblotting using primary antibodies to EP300 (1:1000, Abcam ab10485), BRD4 (1:1000, Epicypher 13-2003), c-MYC (1:1000, Cell Signaling Technology #5605) or β-Actin (1:1000, Cell Signaling Technology #4967). Secondary antibodies were horseradish peroxidase–conjugated anti-rabbit or anti-mouse (1:5000, Santa Cruz Biotechnology, sc-2357, sc-358914), incubated prior to exposure to enhanced chemiluminescence reagents (GE Amersham). Densitometry was performed using Image Lab v6.1 (BioRad).

CECR2 = molecular target: T8, CECR2 (Homo sapiens, UniProt Q9BXF3); assay: BromoScan profiling (DiscoverX); type: binding; settings: read-out: Percent Control CECR2
T8 construct: purchased Eurofins DiscoverX (BROMOscan)

SMARCA2 = molecular target: T9, SMARCA2 (Homo sapiens, UniProt P51531); assay: BromoScan profiling (DiscoverX); type: binding; settings: read-out: Percent Control SMARCA2
T9 construct: purchased Eurofins DiscoverX (BROMOscan)
T9 sequence (P51531 whole entry): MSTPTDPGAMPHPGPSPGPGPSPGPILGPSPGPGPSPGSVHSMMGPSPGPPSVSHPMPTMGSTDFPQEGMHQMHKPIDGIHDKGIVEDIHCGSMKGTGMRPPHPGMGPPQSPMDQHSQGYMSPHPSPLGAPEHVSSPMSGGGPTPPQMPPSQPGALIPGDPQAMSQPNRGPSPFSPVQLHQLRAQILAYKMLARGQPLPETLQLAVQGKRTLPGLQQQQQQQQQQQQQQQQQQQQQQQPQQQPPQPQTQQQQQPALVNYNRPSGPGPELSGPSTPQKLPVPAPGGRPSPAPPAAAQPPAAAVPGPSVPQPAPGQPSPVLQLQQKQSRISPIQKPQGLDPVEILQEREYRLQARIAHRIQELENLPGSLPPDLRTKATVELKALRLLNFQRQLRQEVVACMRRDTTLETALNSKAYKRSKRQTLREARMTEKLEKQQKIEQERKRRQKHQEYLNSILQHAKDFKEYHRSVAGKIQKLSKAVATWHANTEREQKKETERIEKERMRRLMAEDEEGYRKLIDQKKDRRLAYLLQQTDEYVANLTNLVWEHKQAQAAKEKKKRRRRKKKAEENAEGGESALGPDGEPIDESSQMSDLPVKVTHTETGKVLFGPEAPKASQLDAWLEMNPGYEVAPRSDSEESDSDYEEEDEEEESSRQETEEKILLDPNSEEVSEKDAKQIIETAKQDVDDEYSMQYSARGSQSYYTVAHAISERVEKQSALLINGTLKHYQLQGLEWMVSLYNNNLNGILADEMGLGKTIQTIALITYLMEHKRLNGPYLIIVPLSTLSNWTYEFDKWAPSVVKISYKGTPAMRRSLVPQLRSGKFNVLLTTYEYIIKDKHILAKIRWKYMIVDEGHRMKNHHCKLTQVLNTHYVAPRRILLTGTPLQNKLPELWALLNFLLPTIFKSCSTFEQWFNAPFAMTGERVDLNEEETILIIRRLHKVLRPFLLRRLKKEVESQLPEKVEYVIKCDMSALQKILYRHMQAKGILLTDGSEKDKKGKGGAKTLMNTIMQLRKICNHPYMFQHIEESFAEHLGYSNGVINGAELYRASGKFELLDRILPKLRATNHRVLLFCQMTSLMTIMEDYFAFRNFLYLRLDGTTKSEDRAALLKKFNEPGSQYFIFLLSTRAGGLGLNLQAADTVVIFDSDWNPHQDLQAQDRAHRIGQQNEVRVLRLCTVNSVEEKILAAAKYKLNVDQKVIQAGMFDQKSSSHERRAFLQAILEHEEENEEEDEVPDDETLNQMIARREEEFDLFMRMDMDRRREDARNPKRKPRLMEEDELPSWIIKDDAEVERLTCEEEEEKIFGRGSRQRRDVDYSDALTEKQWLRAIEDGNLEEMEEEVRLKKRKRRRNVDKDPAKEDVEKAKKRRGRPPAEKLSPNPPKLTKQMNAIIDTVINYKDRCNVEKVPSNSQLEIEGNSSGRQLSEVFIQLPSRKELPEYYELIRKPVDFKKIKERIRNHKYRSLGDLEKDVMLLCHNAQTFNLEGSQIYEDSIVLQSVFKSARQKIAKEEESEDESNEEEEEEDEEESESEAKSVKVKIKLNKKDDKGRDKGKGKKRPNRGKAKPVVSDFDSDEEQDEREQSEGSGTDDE

ATAD2B = molecular target: T10, ATAD2B (Homo sapiens, UniProt Q9ULI0); assay: BromoScan profiling (DiscoverX); type: binding; settings: read-out: Percent Control ATAD2B
T10 construct: purchased Eurofins DiscoverX (BROMOscan)
T10 sequence (Q9ULI0 whole entry): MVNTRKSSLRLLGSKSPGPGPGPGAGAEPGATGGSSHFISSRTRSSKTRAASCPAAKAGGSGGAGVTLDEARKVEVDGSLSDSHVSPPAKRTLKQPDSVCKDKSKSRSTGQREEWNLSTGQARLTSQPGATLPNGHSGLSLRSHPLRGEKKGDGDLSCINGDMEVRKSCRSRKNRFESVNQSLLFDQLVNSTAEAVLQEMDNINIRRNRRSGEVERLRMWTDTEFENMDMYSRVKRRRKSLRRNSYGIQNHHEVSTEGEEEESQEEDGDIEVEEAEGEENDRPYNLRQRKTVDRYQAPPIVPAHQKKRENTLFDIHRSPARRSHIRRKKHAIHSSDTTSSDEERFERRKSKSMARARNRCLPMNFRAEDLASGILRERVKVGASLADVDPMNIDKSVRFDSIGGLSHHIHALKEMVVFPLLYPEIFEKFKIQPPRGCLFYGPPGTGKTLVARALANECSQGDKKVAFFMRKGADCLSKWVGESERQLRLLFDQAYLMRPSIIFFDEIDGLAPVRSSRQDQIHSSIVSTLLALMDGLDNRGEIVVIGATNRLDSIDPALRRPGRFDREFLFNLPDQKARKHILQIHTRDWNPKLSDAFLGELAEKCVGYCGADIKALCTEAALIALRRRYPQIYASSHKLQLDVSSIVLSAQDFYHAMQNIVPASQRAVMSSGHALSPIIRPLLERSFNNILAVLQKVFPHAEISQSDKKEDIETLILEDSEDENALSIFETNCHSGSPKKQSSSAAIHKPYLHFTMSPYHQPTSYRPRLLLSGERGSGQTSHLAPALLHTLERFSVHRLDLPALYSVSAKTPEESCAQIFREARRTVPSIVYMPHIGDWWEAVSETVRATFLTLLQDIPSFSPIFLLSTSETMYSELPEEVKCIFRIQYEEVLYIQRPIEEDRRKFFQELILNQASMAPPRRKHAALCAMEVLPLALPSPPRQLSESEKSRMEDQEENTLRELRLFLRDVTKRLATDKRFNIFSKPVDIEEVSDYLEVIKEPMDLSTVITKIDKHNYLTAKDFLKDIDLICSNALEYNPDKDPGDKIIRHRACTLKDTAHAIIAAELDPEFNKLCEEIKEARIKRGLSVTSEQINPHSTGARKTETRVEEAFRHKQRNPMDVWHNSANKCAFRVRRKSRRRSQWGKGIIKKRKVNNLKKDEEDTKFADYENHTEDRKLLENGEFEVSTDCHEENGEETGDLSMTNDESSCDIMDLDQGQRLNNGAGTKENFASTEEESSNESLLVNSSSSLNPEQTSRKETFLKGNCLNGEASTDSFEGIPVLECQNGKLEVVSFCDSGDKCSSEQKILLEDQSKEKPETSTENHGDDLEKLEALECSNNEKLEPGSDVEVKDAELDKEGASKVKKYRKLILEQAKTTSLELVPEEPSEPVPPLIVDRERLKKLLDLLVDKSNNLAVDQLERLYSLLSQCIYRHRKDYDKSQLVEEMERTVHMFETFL

PCAF = molecular target: T11, PCAF (Homo sapiens, UniProt Q92831); assay: BromoScan profiling (DiscoverX); type: binding; settings: read-out: Percent Control PCAF
T11 construct: purchased Eurofins DiscoverX (BROMOscan)
T11 sequence (Q92831 whole entry): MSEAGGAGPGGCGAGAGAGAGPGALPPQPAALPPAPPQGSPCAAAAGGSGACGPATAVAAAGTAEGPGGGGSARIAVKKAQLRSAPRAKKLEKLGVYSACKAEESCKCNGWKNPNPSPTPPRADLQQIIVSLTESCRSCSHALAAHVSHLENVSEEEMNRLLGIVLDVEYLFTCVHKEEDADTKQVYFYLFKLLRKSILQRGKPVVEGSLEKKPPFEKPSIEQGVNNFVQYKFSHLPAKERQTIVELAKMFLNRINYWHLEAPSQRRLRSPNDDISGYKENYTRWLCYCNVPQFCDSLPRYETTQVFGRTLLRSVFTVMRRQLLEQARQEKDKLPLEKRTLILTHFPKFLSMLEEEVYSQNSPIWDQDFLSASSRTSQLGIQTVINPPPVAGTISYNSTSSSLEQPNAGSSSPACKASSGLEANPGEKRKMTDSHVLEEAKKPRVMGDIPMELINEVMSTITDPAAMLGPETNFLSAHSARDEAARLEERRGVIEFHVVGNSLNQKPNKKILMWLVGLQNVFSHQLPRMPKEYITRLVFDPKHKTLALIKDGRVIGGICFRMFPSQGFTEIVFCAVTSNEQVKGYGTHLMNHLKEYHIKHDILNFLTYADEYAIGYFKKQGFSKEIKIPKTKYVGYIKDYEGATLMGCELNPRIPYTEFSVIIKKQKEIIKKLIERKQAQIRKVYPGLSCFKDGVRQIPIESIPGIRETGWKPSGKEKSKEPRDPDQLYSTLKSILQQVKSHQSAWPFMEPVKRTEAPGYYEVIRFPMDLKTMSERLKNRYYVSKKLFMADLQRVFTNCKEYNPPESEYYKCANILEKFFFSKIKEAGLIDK

BAZ2A = molecular target: T12, BAZ2A (Homo sapiens, UniProt Q9UIF9); assay: BromoScan profiling (DiscoverX); type: binding; settings: read-out: Percent Control BAZ2A
T12 construct: purchased Eurofins DiscoverX (BROMOscan)

TRIM33(PHD,Bromo.) = assay: BromoScan profiling (DiscoverX); type: binding, human; settings: 1 µM
GCN5L2 = molecular target: T13, GCN5L2 (Homo sapiens, UniProt Q92830); assay: BromoScan profiling (DiscoverX); type: binding; settings: read-out: Percent Control GCN5L2
T13 construct: purchased Eurofins DiscoverX (BROMOscan)
T13 sequence (Q92830 whole entry): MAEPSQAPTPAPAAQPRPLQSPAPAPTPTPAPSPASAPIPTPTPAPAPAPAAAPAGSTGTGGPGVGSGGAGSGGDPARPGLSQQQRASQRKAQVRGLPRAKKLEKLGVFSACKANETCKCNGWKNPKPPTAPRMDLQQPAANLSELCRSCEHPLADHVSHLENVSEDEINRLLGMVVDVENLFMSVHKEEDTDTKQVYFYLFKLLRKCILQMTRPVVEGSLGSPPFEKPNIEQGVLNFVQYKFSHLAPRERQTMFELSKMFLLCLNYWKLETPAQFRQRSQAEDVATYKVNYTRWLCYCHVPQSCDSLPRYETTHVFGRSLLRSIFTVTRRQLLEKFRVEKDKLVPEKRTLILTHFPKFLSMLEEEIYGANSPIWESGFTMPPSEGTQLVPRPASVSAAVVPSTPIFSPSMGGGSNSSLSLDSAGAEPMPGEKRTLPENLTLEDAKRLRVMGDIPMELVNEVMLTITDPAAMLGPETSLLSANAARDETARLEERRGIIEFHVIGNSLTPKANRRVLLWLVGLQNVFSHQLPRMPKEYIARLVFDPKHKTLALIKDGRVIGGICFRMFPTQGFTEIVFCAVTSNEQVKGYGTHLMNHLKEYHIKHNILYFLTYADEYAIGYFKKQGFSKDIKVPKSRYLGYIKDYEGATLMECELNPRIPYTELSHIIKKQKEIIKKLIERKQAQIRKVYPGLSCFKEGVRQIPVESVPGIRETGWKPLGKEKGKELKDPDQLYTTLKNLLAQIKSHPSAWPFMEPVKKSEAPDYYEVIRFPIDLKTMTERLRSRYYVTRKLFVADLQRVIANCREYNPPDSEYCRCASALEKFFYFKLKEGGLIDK

For `CO[C@H]1CC[C@H](n2c([C@@H]3CCCC(=O)N3c3ccc(F)c(F)c3)nc3cc(-c4c(C)noc4C)ccc32)CC1` [CCS1477], the remaining binding at 1 µM (TRIM24(PHD,Bromo.)) was 54%, the plasma concentration [1] was < 1 ng/mL and the remaining binding at 1 µM (WDR9(2)) was 14%. It also gave a remaining binding at 1 µM (BRD9) of 39%, a remaining binding at 1 µM (BRD1) of 88% and a remaining binding at 1 µM (TAF1(2)) of 69%. For the same molecule, the remaining binding at 1 µM (BRD7) was 64%, the remaining binding at 1 µM (BRD3(2)) was 66% and the “MYC gene expression and protein levels” value [2] was “loss of MYC gene expression and protein levels”. The remaining binding at 1 µM (CECR2) was 78%, the remaining binding at 1 µM (SMARCA2) was 50% and the remaining binding at 1 µM (ATAD2B) was 79%. For the same molecule, the remaining binding at 1 µM (PCAF) was 88%, the remaining binding at 1 µM (BAZ2A) was 79% and the “Percent Control TRIM33(PHD,Bromo.)” value (TRIM33(PHD,Bromo.)) was 90. The remaining binding at 1 µM (GCN5L2) was 100%.
